The values below come from article PMC9669442, “Discovery of novel inhibitors targeting nematode chitinase CeCht1: Virtual screening, biological evaluation, and molecular dynamics simulation” (Frontiers in Chemistry, 2022).

T1 sequence (Q11174 52-431): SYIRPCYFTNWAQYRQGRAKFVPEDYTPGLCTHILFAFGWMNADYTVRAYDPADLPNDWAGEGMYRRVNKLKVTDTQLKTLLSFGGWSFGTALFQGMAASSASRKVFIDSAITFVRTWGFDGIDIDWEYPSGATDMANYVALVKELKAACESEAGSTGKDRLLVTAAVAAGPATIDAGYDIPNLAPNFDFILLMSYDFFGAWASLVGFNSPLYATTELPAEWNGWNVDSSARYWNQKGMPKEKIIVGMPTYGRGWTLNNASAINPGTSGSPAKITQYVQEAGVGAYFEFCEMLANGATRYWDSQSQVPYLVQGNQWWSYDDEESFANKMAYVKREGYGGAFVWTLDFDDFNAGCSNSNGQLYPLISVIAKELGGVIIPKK

One experiment addresses T1, CeCht1 (CeCht1-CAD) (Caenorhabditis elegans, UniProt Q11174).
T1 construct: gene cht-1; secreted/overexpressed in Pichia pastoris GS115, purified as in Chen Q. et al. 2021; catalytic residues Asp175, Asp177, Glu179
The experiment can be described thus: end-point fluorescence assay, 4-methylumbelliferone release. It is filed as biochemical.
Conditions: not given
The text has this:
end-point fluorescence assay, 4-methylumbelliferone release on CeCht1 (CeCht1-CAD)
A word on the IC50: it is the point on the concentration scale where inhibition reaches its midpoint. As to `CCn1c(=N)c(C(=O)NCCc2ccc(OC)cc2)cc2c(=O)n3cccc(C)c3nc21` [HAU-4, 1-ethyl-3-((4-methoxyphenethyl)carbamoyl)-10-methyl-5-oxo-1,5-dihydro-2H-dipyrido [1,2-a:2′,3′-d] pyrimidin-2-iminium], the IC50 amounted to 4.2 ± 0.5 µM.
On the same count and under the same terms, next, `COc1ccc2cc(C(C)NC(=O)Cn3nnnc3CN3CCCC3)ccc2c1` (stereo not shown) [HAU-7]: 10 ± 2.6 µM.

The experiment is the same for the next values; noted with them: 4 μM 4-MU-(GlcNAc)2, 10 nM enzyme, 20 mM sodium phosphate pH 6.0, 1% DMSO, 25 °C, 20 min.
For the compound `CCOc1ccc2ccccc2c1/C=N/NC(=O)CNC(=O)c1ccc2c(c1)OCCO2` [HAU-15], the “Inhibition rate at 10 μM (%)” value amounted to 2.0 ± 0.8%.
Same read-out and setting: as for `CCOc1cccc(CNC2CC(C)(C)Cc3c2cnn3-c2ccc(C)cc2)c1O` (stereo not shown) [HAU-11], the figure is 34.9 ± 1.6%; as for `COc1ccc(OC)c(-c2nc(C(=O)NCC3CCCO3)cc3c2[nH]c2ccccc23)c1` (stereo not shown) [HAU-9], 39.4 ± 3.3%.
The same measure, in the same setting: as for `Cc1ccc(OCc2cc(=O)n3c4c(sc3n2)CCCC4)c(NC(=O)CC(C)C)c1` [HAU-1], the figure is 30.4 ± 2.5%.
Same read-out and setting: next, `Cc1ccc2nc(SCc3noc(CCC(=O)Nc4ccc(C)c(C)c4)n3)[nH]c2c1` [HAU-3]: 0.4 ± 0.2%.
